Test results published in publication PMC11702666, “The anti-COVID-19 drug Paxlovid crosses biological barriers of the placenta and brain in rats” (npj Viruses, 2024).
Entries after “also recorded” stand apart in the source; their conditions may differ. Read-outs that look alike come from different tables or passages of the source.

Legend:
[1] = for nirmatrelvir concentration in dialysate sample: 60 min after nirmatrelvir 15 mg/kg i.v., representative sample
[2] = for nirmatrelvir concentration in dialysate sample: 60 min after nirmatrelvir 15 mg/kg i.v., representative sample; remark: listed apart in the source
[3] = for Autosampler stability: 4°C for 6 hours; for Long-term stability: -20°C for 1 month; for Bench-top stability: room temperature for 6 hours; for Freeze‒thaw stability: three cycles
SARS-CoV-2 = system: SARS-CoV-2; design: method as in PMID 34726479; details: 90% inhibition of viral replication, cited from earlier work
[4] = oral; cited from earlier work
zebrafish embryo = zebrafish embryo model; therapeutic doses in humans; cited from earlier work
[5] = PBPK model LeiCNS-PK3.0; recommended dosing regimen; cited from earlier work
in vivo [6] = details: female, Sprague-Dawley, rat, iv, pregnant rats; for AUC(0-t): AUClast; for Kp: AUCtissue/AUCblood (maternal blood-to-tissue transfer ratio); for clearance: CL (clearance); for MRT: MRT (mean residence time); for half-life: t1/2 (elimination half-life)
in vivo [7] = details: male, Sprague-Dawley, rat, iv, 15 mg/kg; for AUC(0-t): AUClast; for AUC(0-t) / clearance / Cmax / MRT / Tmax / half-life: male rats; for clearance: CL (clearance); for MRT: MRT (mean residence time); for half-life: t1/2 (elimination half-life)
in vivo [8] = details: female, Sprague-Dawley, rat, iv, 15 mg/kg; for AUC(0-t): AUClast; for AUC(0-t) / clearance / Cmax / MRT / Tmax / half-life: nonpregnant female rats; for clearance: CL (clearance); for MRT: MRT (mean residence time); for half-life: t1/2 (elimination half-life)
[9] = amniotic fluid dialysate, 5 ng/mL
[10] = amniotic fluid dialysate, 250 ng/mL
[11] = male rat blood dialysate, 5 ng/mL
[12] = male rat blood dialysate, 250 ng/mL
[13] = male rat brain dialysate, 5 ng/mL
[14] = male rat brain dialysate, 250 ng/mL
[15] = pregnant rat maternal blood dialysate, 5 ng/mL
[16] = pregnant rat maternal blood dialysate, 250 ng/mL
[17] = 15 mg/kg, amniotic fluid, nirmatrelvir 15 mg/kg i.v. alone
[18] = 15 mg/kg, amniotic fluid, nirmatrelvir 15 mg/kg i.v. plus ritonavir 7 mg/kg i.v.
[19] = 15 mg/kg, fetus, nirmatrelvir 15 mg/kg i.v. alone
[20] = 15 mg/kg, fetus, nirmatrelvir 15 mg/kg i.v. plus ritonavir 7 mg/kg i.v.
[21] = 15 mg/kg, maternal blood, nirmatrelvir 15 mg/kg i.v. alone
[22] = 15 mg/kg, maternal blood, nirmatrelvir 15 mg/kg i.v. plus ritonavir 7 mg/kg i.v.
[23] = 15 mg/kg, placenta, nirmatrelvir 15 mg/kg i.v. alone
[24] = 15 mg/kg, placenta, nirmatrelvir 15 mg/kg i.v. plus ritonavir 7 mg/kg i.v.
[25] = blood, nirmatrelvir 15 mg/kg i.v. alone
[26] = blood, nirmatrelvir 15 mg/kg i.v. plus ritonavir 7 mg/kg i.v.
[27] = brain, nirmatrelvir 15 mg/kg i.v. alone
[28] = brain, nirmatrelvir 15 mg/kg i.v. plus ritonavir 7 mg/kg i.v.

CC(C)(C)[C@H](NC(=O)C(F)(F)F)C(=O)N1C[C@H]2[C@@H]([C@H]1C(=O)N[C@H](C#N)C[C@@H]1CCNC1=O)C2(C)C [Nirmatrelvir]
nirmatrelvir concentration in dialysate sample ([1]; amniotic fluid dialysate): 27.61 ng/mL
nirmatrelvir concentration in dialysate sample ([1]; fetus dialysate): 37 ng/mL
nirmatrelvir concentration in dialysate sample ([1]; maternal blood dialysate): 344.8 ng/mL
nirmatrelvir concentration in dialysate sample ([1]; placenta dialysate): 95.13 ng/mL
nirmatrelvir level in conceptus (fetus, placenta, amniotic fluid) versus EC90 ([1]; pregnant rats, regular dose of Paxlovid): higher than the EC90
nirmatrelvir concentration in dialysate sample ([2]; blood dialysate): 78.01 ng/mL
nirmatrelvir concentration in dialysate sample ([2]; brain dialysate): 36.36 ng/mL
protein unbound nirmatrelvir concentrations in blood and brain versus EC90 ([2]; male rats): all higher than the EC90
increase of Cmax in blood, combined vs alone (nonpregnant female rats, blood, coadministration with ritonavir vs nirmatrelvir alone): threefold
protein unbound nirmatrelvir concentrations in blood and brain versus EC90 (nonpregnant rats): all higher than the EC90
Autosampler stability [3, 9]: 101.84 ± 1.89%
Long-term stability [3, 9]: 97.21 ± 0.39%
Bench-top stability [3, 9]: 104.82 ± 1.50%
Freeze‒thaw stability [3, 9]: 107.43 ± 5.37%
Autosampler stability [3, 10]: 102.44 ± 2.35%
Long-term stability [3, 10]: 93.43 ± 1.54%
Bench-top stability [3, 10]: 98.60 ± 1.46%
Freeze‒thaw stability [3, 10]: 99.39 ± 4.32%
Autosampler stability ([3]; fetus dialysate, 5 ng/mL): 95.10 ± 0.47%
Long-term stability ([3]; fetus dialysate, 5 ng/mL): 95.20 ± 1.21%
Bench-top stability ([3]; fetus dialysate, 5 ng/mL): 102.37 ± 2.51%
Freeze‒thaw stability ([3]; fetus dialysate, 5 ng/mL): 107.56 ± 0.63%
Autosampler stability ([3]; fetus dialysate, 250 ng/mL): 97.12 ± 1.94%
Long-term stability ([3]; fetus dialysate, 250 ng/mL): 91.79 ± 1.56%
Bench-top stability ([3]; fetus dialysate, 250 ng/mL): 101.02 ± 0.48%
Freeze‒thaw stability ([3]; fetus dialysate, 250 ng/mL): 98.02 ± 2.49%
Autosampler stability [3, 11]: 95.56 ± 6.20%
Long-term stability [3, 11]: 89.61 ± 1.00%
Bench-top stability [3, 11]: 104.5 ± 1.73%
Freeze‒thaw stability [3, 11]: 100.3 ± 3.40%
Autosampler stability [3, 12]: 94.23 ± 4.18%
Long-term stability [3, 12]: 88.54 ± 1.07%
Bench-top stability [3, 12]: 97.60 ± 0.73%
Freeze‒thaw stability [3, 12]: 88.57 ± 0.33%
Autosampler stability [3, 13]: 92.51 ± 2.01%
Long-term stability [3, 13]: 90.07 ± 2.77%
Bench-top stability [3, 13]: 100.6 ± 0.37%
Freeze‒thaw stability [3, 13]: 99.58 ± 1.02%
Autosampler stability [3, 14]: 93.59 ± 4.41%
Long-term stability [3, 14]: 87.36 ± 2.58%
Bench-top stability [3, 14]: 95.79 ± 0.24%
Freeze‒thaw stability [3, 14]: 92.01 ± 0.29%
Autosampler stability ([3]; placenta dialysate, 5 ng/mL): 101.55 ± 6.56%
Long-term stability ([3]; placenta dialysate, 5 ng/mL): 97.38 ± 0.55%
Bench-top stability ([3]; placenta dialysate, 5 ng/mL): 100.37 ± 1.24%
Freeze‒thaw stability ([3]; placenta dialysate, 5 ng/mL): 101.85 ± 4.27%
Autosampler stability ([3]; placenta dialysate, 250 ng/mL): 98.14 ± 3.84%
Long-term stability ([3]; placenta dialysate, 250 ng/mL): 88.97 ± 1.33%
Bench-top stability ([3]; placenta dialysate, 250 ng/mL): 98.87 ± 0.27%
Freeze‒thaw stability ([3]; placenta dialysate, 250 ng/mL): 100.83 ± 0.95%
Autosampler stability [3, 15]: 102.98 ± 4.81%
Long-term stability [3, 15]: 87.18 ± 0.87%
Bench-top stability [3, 15]: 96.42 ± 2.53%
Freeze‒thaw stability [3, 15]: 101.21 ± 2.66%
Autosampler stability [3, 16]: 98.97 ± 4.80%
Long-term stability [3, 16]: 87.65 ± 1.83%
Bench-top stability [3, 16]: 98.68 ± 1.18%
Freeze‒thaw stability [3, 16]: 105.98 ± 2.99%
unbound EC90 (SARS-CoV-2): 0.0905 µg/mL
EC90 (SARS-CoV-2; unbound): 181 nM
bioavailability [4]: approximately 50%
survival rates and morphological defects (zebrafish embryo): does not affect survival rates or induce morphological defects; also recorded: did not affect survival rates or induce morphological defects
predicted brain penetration / effective concentrations against SARS-CoV-2 [5]: achieves effective concentrations against SARS-CoV-2 in human brain cells
AUC(0-t) (in vivo [6]; [17]): 4740 ng·h/mL
AUC(0-t) (in vivo [6]; [18]): 17200 ng·h/mL
AUC(0-t) (in vivo [6]; [19]): 2830 ng·h/mL
AUC(0-t) (in vivo [6]; [20]): 5720 ng·h/mL
AUC(0-t) (in vivo [6]; [21]): 52200 ng·h/mL
AUC(0-t) (in vivo [6]; [22]): 120000 ng·h/mL
AUC(0-t) (in vivo [6]; [23]): 8010 ng·h/mL
AUC(0-t) (in vivo [6]; [24]): 18000 ng·h/mL
Kp (in vivo [6]; [17]): 0.12 ± 0.03
Kp (in vivo [6]; [19]): 0.06 ± 0.01
Kp (in vivo [6]; [23]): 0.15 ± 0.03
clearance (in vivo [6]; [21]): 5 ± 0.4 mL/min/kg
clearance (in vivo [6]; [22]): 2.14 ± 0.15 mL/min/kg
Cmax (in vivo [6]; [17]): 1840 ± 490 ng/mL
Cmax (in vivo [6]; [18]): 6590 ± 1840 ng/mL
Cmax (in vivo [6]; [19]): 960 ± 190 ng/mL
Cmax (in vivo [6]; [20]): 1720 ± 600 ng/mL
Cmax (in vivo [6]; [21]): 156000 ± 24000 ng/mL
Cmax (in vivo [6]; [22]): 171000 ± 52300 ng/mL
Cmax (in vivo [6]; [23]): 3560 ± 320 ng/mL
Cmax (in vivo [6]; [24]): 4400 ± 820 ng/mL
MRT (in vivo [6]; [17]): 4.83 h
MRT (in vivo [6]; [18]): 7.62 h
MRT (in vivo [6]; [19]): 5.13 h
MRT (in vivo [6]; [20]): 21.1 h
MRT (in vivo [6]; [21]): 0.8 h
MRT (in vivo [6]; [22]): 3.22 h
MRT (in vivo [6]; [23]): 2.53 h
MRT (in vivo [6]; [24]): 6.92 h
Tmax (in vivo [6]; [17]): 1.05 h
Tmax (in vivo [6]; [18]): 3.6 h
Tmax (in vivo [6]; [19]): 1.17 h
Tmax (in vivo [6]; [20]): 3.93 h
Tmax (in vivo [6]; [23]): 0.667 h
Tmax (in vivo [6]; [24]): 2.2 h
half-life (in vivo [6]; [17]): 2.78 ± 0.683 h
half-life (in vivo [6]; [18]): 4.02 ± 1.75 h
half-life (in vivo [6]; [19]): 3.03 ± 1 h
half-life (in vivo [6]; [20]): 13.7 ± 9.1 h
half-life (in vivo [6]; [21]): 0.25 ± 0.0167 h
half-life (in vivo [6]; [22]): 0.667 ± 0.117 h
half-life (in vivo [6]; [24]): 4.27 ± 0.65 h
Kp (in vivo [6]; amniotic fluid, nirmatrelvir 15 mg/kg i.v. plus ritonavir 7 mg/kg i.v.): 0.2 ± 0.07
Kp (in vivo [6]; fetus, nirmatrelvir 15 mg/kg i.v. plus ritonavir 7 mg/kg i.v.): 0.06 ± 0.02
Kp (in vivo [6]; placenta, nirmatrelvir 15 mg/kg i.v. plus ritonavir 7 mg/kg i.v.): 0.13 ± 0.02
Kp (in vivo [7]): 0.26 ± 0.03
AUC(0-t) (in vivo [7]; [25]): 12900 ng·h/mL
AUC(0-t) (in vivo [7]; [26]): 80500 ng·h/mL
AUC(0-t) (in vivo [7]; [27]): 3540 ng·h/mL
AUC(0-t) (in vivo [7]; [28]): 5190 ng·h/mL
clearance (in vivo [7]; [25]): 21 ± 2.8 mL/min/kg
clearance (in vivo [7]; [26]): 3.16 ± 0.18 mL/min/kg
Cmax (in vivo [7]; [25]): 26500 ± 4450 ng/mL
Cmax (in vivo [7]; [26]): 94500 ± 27600 ng/mL
Cmax (in vivo [7]; [27]): 2520 ± 320 ng/mL
Cmax (in vivo [7]; [28]): 2020 ± 350 ng/mL
MRT (in vivo [7]; [25]): 0.717 h
MRT (in vivo [7]; [26]): 2.32 h
MRT (in vivo [7]; [27]): 1.53 h
MRT (in vivo [7]; [28]): 3.4 h
Tmax (in vivo [7]; [27]): 0.333 h
Tmax (in vivo [7]; [28]): 0.45 h
half-life (in vivo [7]; [26]): 0.833 ± 0.15 h
half-life (in vivo [7]; [27]): 1.1 ± 0.117 h
half-life (in vivo [7]; [28]): 2.05 ± 0.367 h
Kp (in vivo [8]): 0.21 ± 0.04
AUC(0-t) (in vivo [8]; [25]): 16800 ng·h/mL
AUC(0-t) (in vivo [8]; [26]): 69400 ng·h/mL
AUC(0-t) (in vivo [8]; [27]): 3120 ng·h/mL
AUC(0-t) (in vivo [8]; [28]): 5280 ng·h/mL
clearance (in vivo [8]; [25]): 16 ± 2.02 mL/min/kg
clearance (in vivo [8]; [26]): 3.73 ± 0.29 mL/min/kg
Cmax (in vivo [8]; [25]): 35600 ± 2110 ng/mL
Cmax (in vivo [8]; [26]): 107000 ± 7400 ng/mL
Cmax (in vivo [8]; [27]): 2420 ± 460 ng/mL
Cmax (in vivo [8]; [28]): 2330 ± 390 ng/mL
MRT (in vivo [8]; [25]): 0.667 h
MRT (in vivo [8]; [26]): 1.32 h
MRT (in vivo [8]; [27]): 1.55 h
MRT (in vivo [8]; [28]): 2.2 h
Tmax (in vivo [8]; [27]): 0.333 h
Tmax (in vivo [8]; [28]): 0.6 h
half-life (in vivo [8]; [25]): 0.333 ± 0.0333 h
half-life (in vivo [8]; [26]): 0.417 ± 0.0167 h
half-life (in vivo [8]; [27]): 1.08 ± 0.117 h
half-life (in vivo [8]; [28]): 1.07 ± 0.2 h
